The data set has as its system Daphnia magna. Nature of the data set: 48 h LC50 (-log10 mol/L); higher = more toxic.
Take `CCCCNC(=O)OCC#CI`: the “48 h LC50 (-log10 mol/L)” value worked out at 6.85.
Turning to `Oc1cc(Cl)c(Cl)c(Cl)c1`, the “48 h LC50 (-log10 mol/L)” value was 5.46.
Then `CC(C)C1OCC=CCO1`, with 2.27.
The result for `CC(C)CC[C@@H](O)[C@](C)(O)[C@H]1CC[C@@]2(O)C3=CC(=O)[C@@H]4C[C@@H](O)[C@@H](O)C[C@]4(C)[C@H]3CC[C@]12C` reads 6.42.
The result for `O=C1CN=C(c2ccccc2Cl)c2cc([N+](=O)[O-])ccc2N1` reads 4.02; that for `Clc1ccc(-c2ccc(Cl)cc2Cl)cc1`, 6.21; that for `Oc1ccc(Cl)cc1Cl`, 4.8.
Take `CCN(CC)C(=S)SSC(=S)N(CC)CC`: the “48 h LC50 (-log10 mol/L)” value was determined as 5.98.
Then `O=C(NC(=O)c1c(F)cccc1F)Nc1ccc(Cl)cc1`, with 7.8; and `NC(=O)N/N=C/c1ccc([N+](=O)[O-])o1`, with 3.84.
The result for `O=c1[nH]cc(F)c(=O)[nH]1` reads 3.72; that for `CC(C)(C)NC(=O)[C@H]1CC[C@H]2[C@@H]3CC[C@H]4NC(=O)C=C[C@]4(C)[C@H]3CC[C@]12C`, 4.25.
Then `CN(C)C(=S)N(C)C`, with 2.23.
Consider `C[C@]12C=CC(=O)C=C1C(Cl)=C[C@@H]1[C@@H]2[C@@H](O)C[C@@]2(C)[C@H]1CC[C@]2(O)C(=O)CO`, for which the “48 h LC50 (-log10 mol/L)” value worked out at 3.96.
With `CCCCCOC(=O)Nc1nc(=O)n([C@@H]2O[C@H](C)[C@@H](O)[C@H]2O)cc1F`, the “48 h LC50 (-log10 mol/L)” value worked out at 2.63.
Then `CC(Cc1ccc(C(C)(C)C)cc1)CN1C[C@@H](C)O[C@@H](C)C1` (stereo partly drawn), with 5.1.
Then `Cc1cc(C)cc(C)c1`, with 4.3; and `CC(C)NCC(O)COc1ccc(CC(N)=O)cc1` (stereo not drawn), with 3.9; and `CO/C=C(/C(=O)OC)c1ccccc1Oc1cc(Oc2ccccc2C#N)ncn1`, with 6.39.
With `BrC=C(Br)Br`, the “48 h LC50 (-log10 mol/L)” value was 4.33.
Regarding `CC(Cc1ccc(C(C)(C)C)cc1)CN1CCCCC1` (stereo not drawn), the “48 h LC50 (-log10 mol/L)” value amounted to 5.72.
With `CCCCCCCCc1ccc(O)cc1`, the “48 h LC50 (-log10 mol/L)” value is 6.36.
Then `COc1ccc(NC(=O)N(C)C)cc1Cl`, with 3.15.
For `CC(C)NCC(O)COc1cccc2[nH]c3ccccc3c12` (stereo not drawn), the “48 h LC50 (-log10 mol/L)” value was 4.3.
Then `Clc1ccc(Cl)c(-c2cc(Cl)c(Cl)cc2Cl)c1`, with 7.51; and `Cc1cccc([N+](=O)[O-])c1C`, with 4.56.
Then `C1CCNCC1`, with 3.93.
Then `CCCCC`, with 3.87; and `NC[C@@H]1O[C@H](O[C@H]2[C@@H](O)[C@H](O[C@@H]3[C@@H](O)[C@H](N)C[C@H](N)[C@H]3O[C@H]3O[C@H](CO)[C@@H](O)[C@H](O)[C@H]3N)O[C@@H]2CO)[C@H](N)[C@@H](O)[C@@H]1O`, with 3.09.
As to `CC(C)=CC1C(C(=O)OCc2cccc(Oc3ccccc3)c2)C1(C)C` (stereo not drawn), the “48 h LC50 (-log10 mol/L)” value worked out at 7.69.
The result for `CSc1nc(N)nc(NC(C)(C)C)n1` reads 4.29.
As for `CBr`, the “48 h LC50 (-log10 mol/L)” value turned out to be 4.63.
Turning to `N#Cc1c(Cl)c(Cl)c(Cl)c(C#N)c1Cl`, the “48 h LC50 (-log10 mol/L)” value was 6.21.
Take `ClC=CCCl`: the “48 h LC50 (-log10 mol/L)” value is 4.32.
Then `CN(C)C(N)=S`, with 3.39; and `CC(=O)OCC(CCn1cnc2cnc(N)nc21)COC(C)=O`, with 2.59; and `Cc1ccc(C(=O)c2cc(O)c(O)c([N+](=O)[O-])c2)cc1`, with 4.14.
Then `Cc1c(OCC(F)(F)F)ccnc1CS(=O)c1nc2ccccc2[nH]1` (stereo not drawn), with 4.22; and `COC(=O)Nc1cccc(OC(=O)Nc2cccc(C)c2)c1`, with 4.65.
As to `O=S1(=O)c2ccccc2-c2ccccc21`, the “48 h LC50 (-log10 mol/L)” value was found to be 4.57.
Then `CCCCCCCCCCC[C@@H](C[C@@H]1OC(=O)[C@H]1CCCCCC)OC(=O)[C@H](CC(C)C)NC=O`, with 4.85.
In the case of `Clc1cc(Cl)c(-c2ccccc2)cc1Cl`, the “48 h LC50 (-log10 mol/L)” value was determined as 5.64.
On to `CC(OC(=O)c1cc(Oc2ccc(C(F)(F)F)cc2Cl)ccc1[N+](=O)[O-])C(=O)O` (stereo not drawn), for which the “48 h LC50 (-log10 mol/L)” value was determined as 4.5.
For the molecule `COC1=CC(=O)C[C@@H](C)[C@]12Oc1c(Cl)c(OC)cc(OC)c1C2=O`, the “48 h LC50 (-log10 mol/L)” value came to 2.51.
The result for `Cc1ccc(C(C)C)cc1` reads 4.32; that for `ClCC1CO1` (stereo not drawn), 3.59; that for `CC(C)NCC(O)c1ccc(NS(C)(=O)=O)cc1` (stereo not drawn), 2.96.
Turning to `O=S1(=O)OCC2C(CO1)C1(Cl)C(Cl)=C(Cl)C2(Cl)C1(Cl)Cl` (stereo not drawn), the “48 h LC50 (-log10 mol/L)” value was determined as 5.3.
Turning to `CC(C)N(C(=O)SCC(Cl)=C(Cl)Cl)C(C)C`, the “48 h LC50 (-log10 mol/L)” value worked out at 6.46.
Then `COC(=O)C1=C(C)NC(C)=C(C(=O)OCC(C)C)C1c1ccccc1[N+](=O)[O-]` (stereo not drawn), with 4.07; and `CN=C=S`, with 5.42; and `Cc1ccc2sccc2c1`, with 4.03.
On to `CC1(C)C(C=C(Cl)Cl)C1C(=O)OCc1cccc(Oc2ccccc2)c1` (stereo not drawn), for which the “48 h LC50 (-log10 mol/L)” value is 8.07.
Then `CN(C)[C@@H]1C(=O)C(C(N)=O)=C(O)[C@@]2(O)C(=O)C3=C(O)c4c(O)cccc4[C@@](C)(O)[C@H]3C[C@@H]12`, with 6.43; and `CC(=O)Oc1c(C)cc(OCC(O)CNC(C)C)c(C)c1C` (stereo not drawn), with 3.92; and `O=c1ccc2ccccc2o1`, with 4.03.
Take `C=C[C@]1(C)C[C@@H](OC(=O)CSC2C[C@H]3CC[C@@H](C2)N3C)[C@]2(C)[C@H](C)CC[C@]3(CCC(=O)[C@H]32)[C@@H](C)[C@@H]1O` (stereo partly drawn): the “48 h LC50 (-log10 mol/L)” value turned out to be 4.11.
On to `CCOC(=O)c1ocnc1C`, for which the “48 h LC50 (-log10 mol/L)” value was determined as 2.67.
For the molecule `Nc1cccc(Cl)c1`, the “48 h LC50 (-log10 mol/L)” value is 6.11.
For `CC(C)OC(=O)Nc1cccc(Cl)c1`, the “48 h LC50 (-log10 mol/L)” value was found to be 4.76.
As to `Fc1ccc([C@@]2(Cn3cncn3)O[C@@H]2c2ccccc2Cl)cc1`, the “48 h LC50 (-log10 mol/L)” value was determined as 4.58.
For `CSc1nc(NC2CC2)nc(NC(C)(C)C)n1`, the “48 h LC50 (-log10 mol/L)” value stood at 4.49.
The result for `Nc1nc(N)c2nc(-c3ccccc3)c(N)nc2n1` reads 4.4; that for `Cc1ccc(Cl)cc1Cl`, 5.42; that for `CC(C)CCCCCCCCCCN(CCCCCCCCCCC(C)C)CCCCCCCCCCC(C)C`, 5.96.
Then `Cc1csc2ccccc12`, with 4.76; and `Nc1nc(=S)c2[nH]cnc2[nH]1`, with 4.01.
The result for `Cc1ncc2n1-c1ccc(Cl)cc1C(c1ccccc1F)=NC2` reads 6.21.
Take `O=[N+]([O-])c1ccc(Cl)c([N+](=O)[O-])c1`: the “48 h LC50 (-log10 mol/L)” value was determined as 5.4.
The result for `O=S1c2ccccc2-c2ccccc21` reads 4; that for `CN(C)C(=S)SSC(=S)N(C)C`, 6.06; that for `C1=CCCCC1`, 3.94.
The result for `CCOc1cc(NC(C)=O)ccc1C(=O)OC` reads 3.07.
Consider `CCC(Cl)Cl`, for which the “48 h LC50 (-log10 mol/L)” value stood at 3.63.
As to `c1ccc(NNc2ccccc2)cc1`, the “48 h LC50 (-log10 mol/L)” value is 4.65.
Then `CC(C)(C)[C@H](O)[C@H](Cc1ccc(Cl)cc1)n1cncn1`, with 4.01.
Then `CCOP(=O)(SC(C)CC)N1CCSC1=O` (stereo not drawn), with 5.76.
For the molecule `ClCC(Cl)(Cl)Cl`, the “48 h LC50 (-log10 mol/L)” value was 3.84.
As to `O[C@@H](CS)[C@@H](O)CS`, the “48 h LC50 (-log10 mol/L)” value stood at 3.76.
The result for `COc1c(Cl)c(Cl)c(Cl)c(Cl)c1Cl` reads 7.01.
As for `C1CCCC1`, the “48 h LC50 (-log10 mol/L)” value is 3.81.
For `Cc1ccc(Cl)cc1`, the “48 h LC50 (-log10 mol/L)” value worked out at 4.93.
The result for `Cc1ccc(Cl)cc1[N+](=O)[O-]` reads 4.27.
Turning to `CC[C@H]1OC(=O)[C@H](C)[C@@H](O[C@H]2C[C@@](C)(OC)[C@@H](O)[C@H](C)O2)[C@H](C)[C@@H](O[C@@H]2O[C@H](C)C[C@H](N(C)C)[C@H]2O)[C@](C)(OC)C[C@@H](C)C(=O)[C@H](C)[C@@H](O)[C@]1(C)O`, the “48 h LC50 (-log10 mol/L)” value stood at 4.6.
In the case of `CCOP(=S)(OCC)OP(=S)(OCC)OCC`, the “48 h LC50 (-log10 mol/L)” value was 9.15.
As for `CC(C)(C)CC(C)(C)c1ccc(O)cc1`, the “48 h LC50 (-log10 mol/L)” value turned out to be 6.36.
On to `CN(C)c1nc(=O)n(C2CCCCC2)c(=O)n1C`, for which the “48 h LC50 (-log10 mol/L)” value was 3.22.
The result for `CC(C)(C)C(=O)Cl` reads 2.58; that for `CC[C@H]1OC(=O)[C@H](C)[C@@H](O[C@H]2C[C@@](C)(OC)[C@@H](O)[C@H](C)O2)[C@H](C)[C@@H](O[C@@H]2O[C@H](C)C[C@H](N(C)C)[C@H]2O)[C@](C)(O)C[C@@H](C)C(=O)[C@H](C)[C@@H](O)[C@]1(C)O`, 3.28.
The result for `CN=C(NC#N)NCCSCc1nc[nH]c1C` reads 2.53.
Take `CCCC1O[C@@H]2C[C@H]3[C@@H]4CCC5=CC(=O)C=C[C@]5(C)[C@H]4[C@@H](O)C[C@]3(C)[C@]2(C(=O)CO)O1` (stereo partly drawn): the “48 h LC50 (-log10 mol/L)” value was 4.33.
The result for `O=S1OC[C@@H]2[C@H](CO1)[C@]1(Cl)C(Cl)=C(Cl)[C@@]2(Cl)C1(Cl)Cl` (stereo partly drawn) reads 6.08.
`CCc1ccccc1N`: the “48 h LC50 (-log10 mol/L)” value came out at 4.18.
`Cc1c(COC(=O)[C@@H]2[C@H](/C=C(\Cl)C(F)(F)F)C2(C)C)cccc1-c1ccccc1`: the “48 h LC50 (-log10 mol/L)” value was determined as 8.11.
Then `CN(C)C(=N)N=C(N)N`, with 1.98; and `N#CSCSC#N`, with 6.25; and `Cc1cc(Cl)ccc1OCC(=O)O`, with 3.05.
For `COc1ccc2cc([C@H](C)C(=O)O)ccc2c1`, the “48 h LC50 (-log10 mol/L)” value is 3.79.
